These molecules were tested against MAPK14 (human) (UniProt Q16539) (assay: Inhibition of LPS-Induced TNF-a Production in THP1 Cells). Conditions: not given.
Chain of MAPK14 (human) (Q16539 whole entry, looked up): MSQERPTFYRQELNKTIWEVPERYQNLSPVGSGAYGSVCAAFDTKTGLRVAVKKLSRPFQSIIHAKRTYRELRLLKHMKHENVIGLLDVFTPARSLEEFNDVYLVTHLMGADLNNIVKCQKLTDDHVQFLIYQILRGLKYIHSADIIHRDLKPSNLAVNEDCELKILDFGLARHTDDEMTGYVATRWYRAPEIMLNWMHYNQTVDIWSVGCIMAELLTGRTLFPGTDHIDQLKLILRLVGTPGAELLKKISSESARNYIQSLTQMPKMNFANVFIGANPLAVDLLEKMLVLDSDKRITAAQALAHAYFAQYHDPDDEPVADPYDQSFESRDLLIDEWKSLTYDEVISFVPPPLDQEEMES

Structure (SMILES) | IC50 [nM]
Nc1c(C(=O)c2ccc(CCCO)cc2)cnn1-c1ccccc1 | 1770
CN1CCN(C(=O)COc2cccc(C(=O)c3cnn(-c4ccc(F)cc4)c3N)c2)CC1 | 690
Nc1c(C(=O)c2cccc(N3CCC(Cc4ccccc4)CC3)c2)cnn1-c1ccc(F)cc1 | 140
Nc1c(C(=O)c2ccc(/C=C/CN3CCOCC3)cc2)cnn1-c1ccc(F)cc1 | 6300
Nc1c(C(=O)c2cccc(OCCCN3CCCCC3)c2)cnn1-c1ccc(F)cc1 | 610

The next lines start with the values.

IC50 [nM] | Structure (SMILES)
170 | Nc1cccc(C(=O)c2cnn(-c3ccc(F)cc3)c2N)c1
1040 | Nc1c(C(=O)c2cccc(CCCN3CCOCC3)c2)cnn1-c1ccc(F)cc1
1260 | Nc1c(C(=O)c2cccc(/C=C/CN3CCOCC3)c2)cnn1-c1ccc(F)cc1
830 | N#CCCCOc1cccc(C(=O)c2cnn(-c3ccc(F)cc3)c2N)c1
1620 | Nc1c(C(=O)c2cccc(/C=C/S(N)(=O)=O)c2)cnn1-c1ccc(F)cc1
510 | Nc1c(C(=O)c2cccc(CCS(N)(=O)=O)c2)cnn1-c1ccc(F)cc1
770 | Nc1c(C(=O)c2cccc(OCCN3CCOCC3)c2)cnn1-c1ccc(F)cc1
170 | NC(=NO)c1cccc(C(=O)c2cnn(-c3ccc(F)cc3)c2N)c1

These molecules were tested against MAPK14 (UniProt Q16539) (assay: p-38 Kinase Inhibition Assay). Conditions: not given.
Chain of MAPK14 (Q16539 whole entry, looked up): as above

IC50 [nM] | Structure (SMILES)
1450 | NC(=NO)c1cccc(C(=O)c2cnn(-c3ccc(F)cc3)c2N)c1

The molecules below were run on MAPK14 (sprague-dawley rat) (assay: Inhibition of LPS Induced TNF-alpha Production in Rats). Conditions: dose or concentration not given here.

Structure (SMILES) | inhibition [%]
CN1CCN(CC#Cc2cccc(C(=O)c3cnn(-c4ccc(F)cc4)c3N)c2)CC1 | 86
CNCC#Cc1cccc(C(=O)c2cnn(-c3ccc(F)cc3)c2N)c1 | 86
Nc1c(C(=O)c2cccc(C#CCN3CCOCC3)c2)cnn1-c1ccc(F)cc1 | 96
CNC(=O)COc1cccc(C(=O)c2cnn(-c3ccc(F)cc3)c2N)c1 | 75
NC(=NO)c1cccc(C(=O)c2cnn(-c3ccc(F)cc3)c2N)c1 | 76

From the Kinase Knowledgebase extract (Sharma et al. 2016)
